Experimental findings from PubChem BioAssay (NCI) are described below.

The structures appear in SMILES notation. Several values for one entry are separate records, joined by “and”; a condition that tells them apart may be missing. Equal values may be shown once.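 48-hour exposure; five concentrations; linearly interpolated endpoints. The concentration for full growth arrest is given as TGI.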

Test systems include A549 NSCLC; DU-145 prostate; HOP-92 NSCLC; HS 578T breast; HT29 colon; MDA-N; NCI-H460 lung; OVCAR-8 ovarian; SF-268 CNS; SK-OV-3 ovarian; U251 CNS.
Experiment in all cases: DTP human tumour cell line panel, 48 h

The term TGI denotes the concentration at which net growth stops. The low end stands for greater sensitivity of the cells, the high end for lower sensitivity of the cells. On to `Cc1ccc(-n2cc(-c3ccc(Cl)cc3)c3c(=N)n(N)cnc32)cc1`, for which the TGI with A549 NSCLC is 29 µM; with DU-145 prostate it was 34.5 µM; in the assay on HOP-92 NSCLC, 21.6 µM; in the assay with HS 578T breast, 17.5 µM; in the assay on HT29 colon, 20.6 µM; in the assay with MDA-N it was 23.8 µM. For the same compound, the TGI was 22.2 µM in the assay with NCI-H460 lung; 29.9 µM in the assay on OVCAR-8 ovarian; 25.7 µM in the assay with SF-268 CNS; 31.5 µM in the assay with SK-OV-3 ovarian; 22.3 µM in the assay on U251 CNS.
Regarding `CCC(=C/[C@H](C)C/C=C/C(C)=C/[C@@H](C)C(=O)[C@@H](C)[C@H](O)[C@@H](C)CC)/C=C/[C@H]1CC=CC(=O)O1`, the TGI in the assay on A549 NSCLC was 6.32 µM and 13.5 µM; in the assay on DU-145 prostate it was less than 0.0012 µM; in the assay on HOP-92 NSCLC it was 4.26 µM; with HS 578T breast it was 7.02 µM and 2.38 µM; in the assay with HT29 colon, 2.48 µM and 10.7 µM; with MDA-N, 0.00339 µM. The TGI with NCI-H460 lung was 1.26 µM and 1.64 µM; in the assay with OVCAR-8 ovarian, 2.79 µM and 11.3 µM; in the assay with SF-268 CNS, 2.79 µM and 12.2 µM; with SK-OV-3 ovarian, 3.28 µM and 18.6 µM; in the assay on U251 CNS it was 1.4 µM and 11.6 µM.
In the case of `Cc1cc2occ(S(=O)(=O)NC(=O)Nc3ccc(Cl)cc3)c(=O)c2c(=O)o1`, the TGI in the assay on A549 NSCLC, in the assay on DU-145 prostate, in the assay on HOP-92 NSCLC, in the assay with HS 578T breast, with HT29 colon and in the assay with MDA-N was greater than 100 µM throughout. Moreover, the concentration for total growth inhibition (TGI) in the assay with NCI-H460 lung, with OVCAR-8 ovarian, in the assay on SF-268 CNS, in the assay on SK-OV-3 ovarian and with U251 CNS was greater than 100 µM each time.
Turning to `COc1cc(/C=C2/Oc3c(OC)cccc3C2=O)ccc1O`, the total growth inhibition concentration (TGI) in the assay on A549 NSCLC, with DU-145 prostate, with HOP-92 NSCLC, in the assay with HS 578T breast, in the assay on HT29 colon and in the assay on MDA-N was greater than 100 µM throughout. Also, the TGI with NCI-H460 lung, with OVCAR-8 ovarian, in the assay with SF-268 CNS, in the assay with SK-OV-3 ovarian and in the assay on U251 CNS was greater than 100 µM in each case.
On to `CCCCCCCCCCCCC1N=C(N)N2CCCC2=C1C(=O)OC` (stereo not given), for which the TGI with A549 NSCLC worked out at 36.2 µM; in the assay on DU-145 prostate it was 21.4 µM; in the assay with HOP-92 NSCLC, 10.3 µM; in the assay with HS 578T breast, 4.17 µM; in the assay on HT29 colon it was 3.06 µM; in the assay on MDA-N, 4.72 µM. Also, the TGI with NCI-H460 lung came to 3.23 µM; in the assay on OVCAR-8 ovarian, 3.37 µM; in the assay on SF-268 CNS, 14.8 µM; in the assay with SK-OV-3 ovarian it was 23.8 µM; in the assay on U251 CNS, 3.06 µM.
As for `C/C(Nc1ccc(Cl)cc1)=C1/CCOC1=O`, the TGI is greater than 49 µM in the assay with A549 NSCLC; greater than 100 µM in the assay on DU-145 prostate; greater than 100 µM in the assay on HOP-92 NSCLC; greater than 100 µM in the assay with HS 578T breast; greater than 100 µM in the assay on HT29 colon; greater than 100 µM in the assay with MDA-N. Besides, the TGI in the assay on NCI-H460 lung, with OVCAR-8 ovarian, in the assay with SF-268 CNS, in the assay on SK-OV-3 ovarian and in the assay with U251 CNS was greater than 100 µM throughout.
As for `COc1cc2c(cc1OC)C(=O)N(c1ccc(OCCN3CCCC3)cc1)C2=O`, the TGI in the assay on A549 NSCLC, in the assay with DU-145 prostate, in the assay with HOP-92 NSCLC, with HS 578T breast, in the assay with HT29 colon and in the assay on MDA-N was greater than 100 µM throughout. The TGI in the assay with NCI-H460 lung, with OVCAR-8 ovarian, in the assay on SF-268 CNS, with SK-OV-3 ovarian and in the assay on U251 CNS was greater than 100 µM each time.
Take `CC(NNC(=O)c1ccncc1)c1ccc(Cl)cc1Cl` (stereo not given): the concentration for total growth inhibition (TGI) with A549 NSCLC, with DU-145 prostate, with HOP-92 NSCLC, with HS 578T breast, with HT29 colon and in the assay on MDA-N was greater than 100 µM throughout. In addition, the total growth inhibition concentration (TGI) with NCI-H460 lung, in the assay on OVCAR-8 ovarian, in the assay with SF-268 CNS, in the assay on SK-OV-3 ovarian and with U251 CNS was greater than 100 µM in each case.
Regarding `CC(=O)O[C@H]1C(=O)[C@@]2(C)[C@H]([C@H](OC(=O)c3ccco3)[C@]3(O)C[C@H](OC(=O)[C@H](O)[C@@H](NC(=O)c4ccccc4)c4ccccc4)C(C)=C1C3(C)C)[C@]1(OC(C)=O)CO[C@@H]1C[C@@H]2O`, the total growth inhibition concentration (TGI) with A549 NSCLC was greater than 25 µM; in the assay on DU-145 prostate it was greater than 25 µM; in the assay with HOP-92 NSCLC, greater than 25 µM; in the assay with HS 578T breast, greater than 8.33 µM; in the assay with HT29 colon, greater than 25 µM; with MDA-N it was 0.0602 µM. Further, the TGI was greater than 13 µM with NCI-H460 lung; greater than 17.2 µM in the assay on OVCAR-8 ovarian; greater than 25 µM with SF-268 CNS; 10 µM in the assay on SK-OV-3 ovarian; greater than 25 µM in the assay with U251 CNS.
As to `O=C1C2CC[C@@H]3C(=O)C(Cl)(Cl)[C@@H]3CCC2C1(Cl)Cl` (stereo not given in full), the TGI in the assay with A549 NSCLC, in the assay with DU-145 prostate, in the assay with HOP-92 NSCLC, with HS 578T breast, in the assay with HT29 colon and in the assay on MDA-N was greater than 100 µM in each case. In addition, the TGI in the assay on NCI-H460 lung, in the assay on OVCAR-8 ovarian, in the assay on SF-268 CNS, with SK-OV-3 ovarian and in the assay with U251 CNS was greater than 100 µM each time.
